Measurements reported in the NIST ThermoML archive (doi:10.1016/j.tca.2005.11.041).
± gives the expanded uncertainty stated by the source.

Assay: excess molar enthalpy (molar enthalpy of mixing); xn = mol fraction of the nth substance listed
Settings: 298.15 K, Liquid, Flow calorimetry

COC=O [methyl methanoate] + CCCCO
Settings	excess molar enthalpy [kcal/mol]
5000 kPa, x1 = 0.0501	0.1057 ± 0.001
5000 kPa, x1 = 0.1	0.1987 ± 0.00172
5000 kPa, x1 = 0.1496	0.2737 ± 0.00229
5000 kPa, x1 = 0.2	0.3348 ± 0.00287
5000 kPa, x1 = 0.2496	0.3818 ± 0.00311
5000 kPa, x1 = 0.2999	0.4177 ± 0.00335
5000 kPa, x1 = 0.3508	0.4426 ± 0.00359
5000 kPa, x1 = 0.4004	0.459 ± 0.00382
5000 kPa, x1 = 0.4503	0.4661 ± 0.00382
5000 kPa, x1 = 0.5003	0.4654 ± 0.00382
5000 kPa, x1 = 0.5505	0.4566 ± 0.00382
5000 kPa, x1 = 0.6006	0.4399 ± 0.00359
5000 kPa, x1 = 0.6505	0.4136 ± 0.00335
5000 kPa, x1 = 0.7002	0.3807 ± 0.00311
5000 kPa, x1 = 0.7494	0.3421 ± 0.00287
5000 kPa, x1 = 0.8004	0.2897 ± 0.00239
5000 kPa, x1 = 0.8509	0.2321 ± 0.00198
5000 kPa, x1 = 0.9006	0.162 ± 0.00143
5000 kPa, x1 = 0.9495	0.0826 ± 0.000837
10000 kPa, x1 = 0.05	0.1054 ± 0.001
10000 kPa, x1 = 0.0997	0.1979 ± 0.00172
10000 kPa, x1 = 0.1506	0.2747 ± 0.00232
10000 kPa, x1 = 0.1994	0.3337 ± 0.00287
10000 kPa, x1 = 0.2505	0.3818 ± 0.00311
10000 kPa, x1 = 0.2992	0.4163 ± 0.00335
10000 kPa, x1 = 0.35	0.4416 ± 0.00359
10000 kPa, x1 = 0.3996	0.4564 ± 0.00382
10000 kPa, x1 = 0.4495	0.464 ± 0.00382
10000 kPa, x1 = 0.4995	0.4626 ± 0.00382
10000 kPa, x1 = 0.5497	0.4531 ± 0.00359
10000 kPa, x1 = 0.5998	0.4355 ± 0.00359
10000 kPa, x1 = 0.6498	0.4104 ± 0.00335
10000 kPa, x1 = 0.6995	0.3791 ± 0.00311
10000 kPa, x1 = 0.7511	0.337 ± 0.00287
10000 kPa, x1 = 0.7999	0.288 ± 0.00239
10000 kPa, x1 = 0.8505	0.2283 ± 0.00196
10000 kPa, x1 = 0.9003	0.1592 ± 0.00141
10000 kPa, x1 = 0.9493	0.07925 ± 0.000789

COC=O [methyl methanoate] + CC(C)O
Settings	excess molar enthalpy [kcal/mol]
5000 kPa, x1 = 0.0399	0.08475 ± 0.000837
5000 kPa, x1 = 0.0822	0.1674 ± 0.00148
5000 kPa, x1 = 0.1235	0.2356 ± 0.00201
5000 kPa, x1 = 0.1656	0.2947 ± 0.00239
5000 kPa, x1 = 0.2102	0.3451 ± 0.00287
5000 kPa, x1 = 0.2556	0.3878 ± 0.00311
5000 kPa, x1 = 0.3	0.4214 ± 0.00335
5000 kPa, x1 = 0.3471	0.4472 ± 0.00359
5000 kPa, x1 = 0.3951	0.4659 ± 0.00382
5000 kPa, x1 = 0.444	0.4756 ± 0.00382
5000 kPa, x1 = 0.4938	0.4777 ± 0.00382
5000 kPa, x1 = 0.5447	0.4726 ± 0.00382
5000 kPa, x1 = 0.5965	0.4596 ± 0.00382
5000 kPa, x1 = 0.6494	0.4357 ± 0.00359
5000 kPa, x1 = 0.7055	0.3992 ± 0.00335
5000 kPa, x1 = 0.7606	0.3557 ± 0.00287
5000 kPa, x1 = 0.8191	0.2934 ± 0.00239
5000 kPa, x1 = 0.8766	0.223 ± 0.00191
5000 kPa, x1 = 0.9376	0.1214 ± 0.00112
10000 kPa, x1 = 0.0398	0.0857 ± 0.00086
10000 kPa, x1 = 0.082	0.1675 ± 0.00148
10000 kPa, x1 = 0.1232	0.2355 ± 0.00201
10000 kPa, x1 = 0.1651	0.2936 ± 0.00239
10000 kPa, x1 = 0.2096	0.3446 ± 0.00287
10000 kPa, x1 = 0.2549	0.3862 ± 0.00311
10000 kPa, x1 = 0.2993	0.4185 ± 0.00335
10000 kPa, x1 = 0.3463	0.4443 ± 0.00359
10000 kPa, x1 = 0.3943	0.4624 ± 0.00382
10000 kPa, x1 = 0.4432	0.4723 ± 0.00382
10000 kPa, x1 = 0.493	0.4745 ± 0.00382
10000 kPa, x1 = 0.5439	0.4703 ± 0.00382
10000 kPa, x1 = 0.5957	0.4555 ± 0.00359
10000 kPa, x1 = 0.6487	0.4324 ± 0.00359
10000 kPa, x1 = 0.7048	0.3963 ± 0.00335
10000 kPa, x1 = 0.76	0.351 ± 0.00287
10000 kPa, x1 = 0.8186	0.2901 ± 0.00239
10000 kPa, x1 = 0.8762	0.2164 ± 0.00186
10000 kPa, x1 = 0.9374	0.118 ± 0.0011

COC=O [methyl methanoate] + CCCCCO
Settings	excess molar enthalpy [kcal/mol]
5000 kPa, x1 = 0.0507	0.1315 ± 0.0012
5000 kPa, x1 = 0.0997	0.2364 ± 0.00201
5000 kPa, x1 = 0.1503	0.3231 ± 0.00263
5000 kPa, x1 = 0.2004	0.3893 ± 0.00311
5000 kPa, x1 = 0.2494	0.4395 ± 0.00359
5000 kPa, x1 = 0.2991	0.4781 ± 0.00382
5000 kPa, x1 = 0.3496	0.5052 ± 0.00406
5000 kPa, x1 = 0.4005	0.5217 ± 0.0043
5000 kPa, x1 = 0.4488	0.5278 ± 0.0043
5000 kPa, x1 = 0.4998	0.5254 ± 0.0043
5000 kPa, x1 = 0.5506	0.5101 ± 0.00406
5000 kPa, x1 = 0.6009	0.493 ± 0.00406
5000 kPa, x1 = 0.6503	0.4643 ± 0.00382
5000 kPa, x1 = 0.6986	0.4309 ± 0.00359
5000 kPa, x1 = 0.7492	0.3859 ± 0.00311
5000 kPa, x1 = 0.7983	0.3299 ± 0.00263
5000 kPa, x1 = 0.8497	0.2628 ± 0.00222
5000 kPa, x1 = 0.8992	0.181 ± 0.00158
5000 kPa, x1 = 0.9509	0.08525 ± 0.000837
10000 kPa, x1 = 0.0505	0.1287 ± 0.0012
10000 kPa, x1 = 0.0994	0.2336 ± 0.00198
10000 kPa, x1 = 0.1499	0.3196 ± 0.00263
10000 kPa, x1 = 0.1998	0.386 ± 0.00311
10000 kPa, x1 = 0.251	0.438 ± 0.00359
10000 kPa, x1 = 0.3009	0.476 ± 0.00382
10000 kPa, x1 = 0.3488	0.5032 ± 0.00406
10000 kPa, x1 = 0.3997	0.5192 ± 0.0043
10000 kPa, x1 = 0.4509	0.5253 ± 0.0043
10000 kPa, x1 = 0.499	0.5227 ± 0.0043
10000 kPa, x1 = 0.5498	0.5116 ± 0.00406
10000 kPa, x1 = 0.6001	0.4941 ± 0.00406
10000 kPa, x1 = 0.6496	0.4661 ± 0.00382
10000 kPa, x1 = 0.7017	0.4273 ± 0.00359
10000 kPa, x1 = 0.7486	0.3851 ± 0.00311
10000 kPa, x1 = 0.802	0.3276 ± 0.00263
10000 kPa, x1 = 0.8493	0.2631 ± 0.00222
10000 kPa, x1 = 0.8988	0.1821 ± 0.0016
10000 kPa, x1 = 0.9507	0.0824 ± 0.000837
